Experiments:
PANC-1 [1] = assay: Antiproliferative activity against human PANC1 cells after 48 hrs by resazurin dye-based fluorescence assay; assay type: functional, cell-based; settings: PANC-1, 48 h
HepG2 [2] = assay: Antiproliferative activity against human HepG2 cells after 48 hrs by resazurin dye-based fluorescence assay; assay type: functional, cell-based; settings: HepG2, 48 h
CCRF-CEM = assay: Antiproliferative activity against human CCRF-CEM cells after 48 hrs by resazurin dye-based fluorescence assay; assay type: functional, cell-based
hTERT-BJ [3] = assay: Cytotoxicity against hTERT-BJ cells after 48 hrs by resazurin dye-based fluorescence assay; assay type: cell-based; settings: Homo sapiens
[4] = Selectivity index, ratio of IC50 for hTERT-RPE1 cells to IC50 for human PANC1 cells; assay type: toxicity; settings: hTERT-RPE1 cells versus PANC1 cells, read-out: Ratio IC50
[5] = Selectivity index, ratio of IC50 for hTERT-BJ cells to IC50 for human PANC1 cells; assay type: toxicity; settings: hTERT-BJ cells versus PANC1 cells, read-out: Ratio IC50
[6] = Selectivity index, ratio of IC50 for hTERT-RPE1 cells to IC50 for human HepG2 cells; assay type: toxicity; settings: hTERT-RPE1 cells versus HepG2 cells, read-out: Ratio IC50
[7] = Selectivity index, ratio of IC50 for hTERT-BJ cells to IC50 for human HepG2 cells; assay type: toxicity; settings: hTERT-BJ cells versus HepG2 cells, read-out: Ratio IC50
[8] = Selectivity index, ratio of IC50 for hTERT-RPE1 cells to IC50 for human CCRF-CEM cells; assay type: toxicity; settings: hTERT-RPE1 cells versus CCRF-CEM cells, read-out: Ratio IC50
[9] = Selectivity index, ratio of IC50 for hTERT-BJ cells to IC50 for human CCRF-CEM cells; assay type: toxicity; settings: hTERT-BJ cells versus CCRF-CEM cells, read-out: Ratio IC50
TERT-RPE1 [10] = assay: Cytotoxicity against hTERT-RPE1 cells after 48 hrs by resazurin dye-based fluorescence assay; assay type: cell-based; settings: Homo sapiens, RPE-1, 48 h
hTERT-BJ [11] = assay: Cytotoxicity against hTERT-BJ cells at 6.25 uM after 48 hrs by resazurin dye-based fluorescence assay relative to control; assay type: cell-based; settings: human
hTERT-BJ [12] = assay: Cytotoxicity against hTERT-BJ cells at 12.50 uM after 48 hrs by resazurin dye-based fluorescence assay relative to control; assay type: cell-based; settings: human, 12.5 µM
hTERT-BJ [13] = assay: Cytotoxicity against hTERT-BJ cells at 25 uM after 48 hrs by resazurin dye-based fluorescence assay relative to control; assay type: cell-based; settings: human
hTERT-BJ [14] = assay: Cytotoxicity against hTERT-BJ cells at 50 uM after 48 hrs by resazurin dye-based fluorescence assay relative to control; assay type: cell-based; settings: human
TERT-RPE1 [15] = assay: Cytotoxicity against hTERT-RPE1 cells at 6.25 uM after 48 hrs by resazurin dye-based fluorescence assay relative to control; assay type: cell-based; settings: human, tert-rpe1, 48 h
TERT-RPE1 [16] = assay: Cytotoxicity against hTERT-RPE1 cells at 12.50 uM after 48 hrs by resazurin dye-based fluorescence assay relative to control; assay type: cell-based; settings: human, tert-rpe1, 48 h, 12.5 µM
TERT-RPE1 [17] = assay: Cytotoxicity against hTERT-RPE1 cells at 25 uM after 48 hrs by resazurin dye-based fluorescence assay relative to control; assay type: cell-based; settings: human, tert-rpe1, 48 h
TERT-RPE1 [18] = assay: Cytotoxicity against hTERT-RPE1 cells at 50 uM after 48 hrs by resazurin dye-based fluorescence assay relative to control; assay type: cell-based; settings: human, tert-rpe1, 48 h
HepG2 [19] = assay: Induction of apoptosis in human HepG2 cells assessed as increase in caspase-3/7 activity after 24 hrs by Caspase-Glo 3/7 luminescence assay; assay type: functional, cell-based
PANC-1 [20] = assay: Induction of apoptosis in human PANC1 cells assessed as increase in caspase-3/7 activity after 24 hrs by Caspase-Glo 3/7 luminescence assay; assay type: functional, cell-based

Row | SMILES | IC50 (PANC-1 [1]) [µM] | IC50 (HepG2 [2]) [µM] | IC50 (CCRF-CEM) [µM] | IC50 (hTERT-BJ [3]) [µM] | selectivity ratio [4] | selectivity ratio [5] | selectivity ratio [6] | selectivity ratio [7] | selectivity ratio [8] | selectivity ratio [9] | IC50 (TERT-RPE1 [10]) [µM] | Activity (hTERT-BJ [11]) [%] | Activity (hTERT-BJ [12]) [%] | Activity (hTERT-BJ [13]) [%] | Activity (hTERT-BJ [14]) [%] | Activity (TERT-RPE1 [15]) [%] | Activity (TERT-RPE1 [16]) [%] | Activity (TERT-RPE1 [17]) [%] | Activity (TERT-RPE1 [18]) [%] | Activity (HepG2 [19]) | further results
1 | Cc1noc(NS(=O)(=O)c2ccc(NC(=O)c3cc4ccccc4oc3=O)cc2)c1C | 19.9 | 24 | 26.6 | > 50 | > 2.51 | > 2.51 | > 2.09 | > 2.09 | > 1.88 | > 1.88 | > 50 | 8.49 | 10.4 | 15.88 | 26.66 | 9.28 | 13.72 | 33.32 | 47.61 |  | 
2 | CCOc1ccc(NC(=O)c2cc3cc(Br)ccc3oc2=O)cc1 | 16.8 | 37 | 21.8 | > 50 | > 2.97 | > 2.97 | > 1.35 | > 1.35 | > 2.3 | > 2.3 | > 50 | 2.3 | 1.19 | 1.86 | 3.3 | 3.04 | 9.63 | 13.28 | 16.45 |  | 
3 | CCOc1ccc(NC(=O)c2cc3ccc(O)cc3oc2=O)cc1 | 14.3 | 17.3 | 12.6 | > 50 | > 3.5 | > 3.5 | > 2.88 | > 2.88 | > 3.97 | > 3.97 | > 50 | 10.17 | 15.98 | 30.03 | 31.23 | 11.23 | 13.91 | 19.22 | 36.28 |  | 
4 | O=C(N/N=C/c1cccnc1)c1cc2ccccc2oc1=O | 15.3 | 15.9 | 9.9 | > 50 | > 3.27 | > 3.27 | > 3.14 | > 3.14 | > 5.05 | > 5.05 | > 50 | 0.21 | 0.97 | 5.22 | 2.6 | 7.46 | 8.28 | 9.89 | 14.75 | Dose-dependent effect | Activity (PANC-1 [20]): Dose-dependent effect
5 | O=C(N/N=C/c1ccncc1)c1cc2cc(Br)ccc2oc1=O | 25.7 | 4.89 | 6.34 | > 50 | > 1.94 | > 1.94 | > 10.2 | > 10.2 | > 7.88 | > 7.88 | > 50 | 0.6 | 0.2 | 1.37 | 2.52 | 9.63 | 17.16 | 34.5 | 39.96 | Dose-dependent effect | Activity (PANC-1 [20]): Dose-dependent effect

Molecules with a lower IC50 (PANC-1 [1]), results first:

Row | IC50 (PANC-1 [1]) [µM] | IC50 (HepG2 [2]) [µM] | IC50 (CCRF-CEM) [µM] | SMILES | IC50 (hTERT-BJ [3]) [µM] | selectivity ratio [4] | selectivity ratio [5] | selectivity ratio [6] | selectivity ratio [7] | selectivity ratio [8] | selectivity ratio [9] | IC50 (TERT-RPE1 [10]) [µM] | Activity (hTERT-BJ [11]) [%] | Activity (hTERT-BJ [12]) [%] | Activity (hTERT-BJ [13]) [%] | Activity (hTERT-BJ [14]) [%] | Activity (TERT-RPE1 [15]) [%] | Activity (TERT-RPE1 [16]) [%] | Activity (TERT-RPE1 [17]) [%] | Activity (TERT-RPE1 [18]) [%] | Activity (HepG2 [19]) | further results
6 | 9.75 | 17.2 | 3.11 | O=C(N/N=C/c1ccncc1)c1cc2ccccc2oc1=O | > 50 | > 5.13 | > 5.13 | > 2.91 | > 2.91 | > 16.1 | > 16.1 | > 50 | 0.6 | 1.23 | 3.9 | 1.73 | 0.65 | 4.08 | 12.2 | 13.73 |  | 
7 | 10.5 | 18.1 | 15.7 | CCOc1ccc2nc(Cl)c(/C=N/NC(=O)c3cc4cc([N+](=O)[O-])ccc4oc3=O)cc2c1 | > 50 | > 4.75 | > 4.75 | > 2.77 | > 2.77 | > 3.19 | > 3.19 | > 50 | 1.58 | 1.38 | 2.13 | 3.33 | 1.74 | 3.92 | 5.6 | 10.48 | Dose-dependent effect | Activity (PANC-1 [20]): Dose-dependent effect
8 | 0.129 | 19.2 | 17.1 | CCOc1ccc2nc(Cl)c(/C=N/NC(=O)c3cc4ccc(O)cc4oc3=O)cc2c1 | > 50 | > 388 | > 388 | > 2.6 | > 2.6 | > 2.92 | > 2.92 | > 50 | 3.67 | 1.47 | 2.26 | 5.63 | 3.51 | 8.35 | 8.85 | 13.99 |  | 

Source: ChEMBL document CHEMBL4152218, “Novel hydrazide-hydrazone and amide substituted coumarin derivatives: Synthesis, cytotoxicity screening, microarray, radiolabeling and in vivo pharmacokinetic studies” (Eur J Med Chem, 2018)
